From doi:10.1101/2023.03.24.534094v2 (biorxiv, 2023)
Like-named read-outs stand apart in the source and are kept apart here.

Assays:
Experiment in all cases: biochemical
CaMK4 = molecular target: T1, CaMK4 (Homo sapiens, UniProt Q16566)
T1 sequence (Q16566 1-473): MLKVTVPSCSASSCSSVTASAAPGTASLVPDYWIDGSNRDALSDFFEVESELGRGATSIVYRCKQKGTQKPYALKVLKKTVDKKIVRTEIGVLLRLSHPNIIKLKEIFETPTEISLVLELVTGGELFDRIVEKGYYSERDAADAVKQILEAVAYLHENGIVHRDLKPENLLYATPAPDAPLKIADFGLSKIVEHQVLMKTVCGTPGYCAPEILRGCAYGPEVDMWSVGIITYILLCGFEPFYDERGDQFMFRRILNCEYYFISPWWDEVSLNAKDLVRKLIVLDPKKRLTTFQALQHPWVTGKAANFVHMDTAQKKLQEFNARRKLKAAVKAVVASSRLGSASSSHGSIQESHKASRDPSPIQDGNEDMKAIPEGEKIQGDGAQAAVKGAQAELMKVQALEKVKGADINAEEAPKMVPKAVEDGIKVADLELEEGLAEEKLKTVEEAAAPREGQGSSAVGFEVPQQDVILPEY

VRK1 = molecular target: T2, VRK1 (Homo sapiens, UniProt Q99986)
T2 sequence (Q99986 1-396): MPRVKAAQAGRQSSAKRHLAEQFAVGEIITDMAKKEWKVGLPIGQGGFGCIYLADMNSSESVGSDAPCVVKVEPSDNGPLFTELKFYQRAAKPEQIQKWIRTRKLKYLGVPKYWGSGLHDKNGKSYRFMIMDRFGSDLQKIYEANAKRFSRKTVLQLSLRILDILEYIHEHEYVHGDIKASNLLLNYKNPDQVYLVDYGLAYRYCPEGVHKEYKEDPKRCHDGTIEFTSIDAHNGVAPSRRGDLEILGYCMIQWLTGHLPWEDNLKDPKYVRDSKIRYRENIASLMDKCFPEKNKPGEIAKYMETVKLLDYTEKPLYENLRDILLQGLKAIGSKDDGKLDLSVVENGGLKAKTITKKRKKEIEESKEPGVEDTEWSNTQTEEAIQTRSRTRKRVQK

DAPK1 = DAPK1 (Homo sapiens, UniProt P53355)
CK2a1 = CK2a1 (Homo sapiens, UniProt P68400)
FECH = molecular target: T3, FECH (Homo sapiens, UniProt P22830)
T3 sequence (P22830 1-423): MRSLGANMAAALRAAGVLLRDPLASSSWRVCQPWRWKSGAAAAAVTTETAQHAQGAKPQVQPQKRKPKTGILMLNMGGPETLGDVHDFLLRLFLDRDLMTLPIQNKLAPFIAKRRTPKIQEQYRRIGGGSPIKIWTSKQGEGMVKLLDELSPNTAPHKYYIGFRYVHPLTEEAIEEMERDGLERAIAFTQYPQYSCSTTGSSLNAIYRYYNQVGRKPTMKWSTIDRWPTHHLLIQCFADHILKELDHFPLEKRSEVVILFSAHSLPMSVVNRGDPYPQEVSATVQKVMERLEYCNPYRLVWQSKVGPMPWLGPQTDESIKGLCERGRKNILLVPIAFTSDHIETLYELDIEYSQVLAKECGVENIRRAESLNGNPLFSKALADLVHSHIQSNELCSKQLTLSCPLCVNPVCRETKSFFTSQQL

MSK1b = MSK1b (Homo sapiens, UniProt O75582)
BMPR2 = molecular target: T4, BMPR2 (Homo sapiens, UniProt Q13873)
T4 sequence (Q13873 1-1038): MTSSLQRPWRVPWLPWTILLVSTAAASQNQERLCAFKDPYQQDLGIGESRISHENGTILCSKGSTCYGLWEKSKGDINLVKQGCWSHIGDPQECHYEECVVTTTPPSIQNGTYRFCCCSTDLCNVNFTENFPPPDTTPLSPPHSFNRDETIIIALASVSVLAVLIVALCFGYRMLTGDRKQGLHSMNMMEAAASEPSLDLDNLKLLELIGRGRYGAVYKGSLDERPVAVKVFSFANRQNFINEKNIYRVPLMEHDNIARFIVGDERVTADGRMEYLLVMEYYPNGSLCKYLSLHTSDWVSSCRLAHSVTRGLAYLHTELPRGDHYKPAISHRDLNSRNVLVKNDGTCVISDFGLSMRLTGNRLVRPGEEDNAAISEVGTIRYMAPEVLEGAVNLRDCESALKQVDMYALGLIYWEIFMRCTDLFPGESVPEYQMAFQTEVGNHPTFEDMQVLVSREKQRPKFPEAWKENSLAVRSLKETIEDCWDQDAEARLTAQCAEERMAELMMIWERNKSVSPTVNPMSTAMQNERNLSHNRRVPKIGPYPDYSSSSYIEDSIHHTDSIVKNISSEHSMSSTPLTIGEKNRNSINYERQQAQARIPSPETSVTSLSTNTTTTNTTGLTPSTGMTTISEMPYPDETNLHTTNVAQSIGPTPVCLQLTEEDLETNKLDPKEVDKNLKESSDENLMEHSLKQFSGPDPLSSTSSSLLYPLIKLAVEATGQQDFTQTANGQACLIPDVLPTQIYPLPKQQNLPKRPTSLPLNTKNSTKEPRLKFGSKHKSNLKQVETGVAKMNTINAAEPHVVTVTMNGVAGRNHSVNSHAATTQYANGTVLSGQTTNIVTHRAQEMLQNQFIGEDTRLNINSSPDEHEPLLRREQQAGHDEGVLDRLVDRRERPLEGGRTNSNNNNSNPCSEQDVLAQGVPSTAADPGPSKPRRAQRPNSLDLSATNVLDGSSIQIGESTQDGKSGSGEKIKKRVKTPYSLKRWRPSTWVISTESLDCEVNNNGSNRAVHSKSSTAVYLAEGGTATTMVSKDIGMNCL

Sequence of CK2a1 (P68400 whole entry): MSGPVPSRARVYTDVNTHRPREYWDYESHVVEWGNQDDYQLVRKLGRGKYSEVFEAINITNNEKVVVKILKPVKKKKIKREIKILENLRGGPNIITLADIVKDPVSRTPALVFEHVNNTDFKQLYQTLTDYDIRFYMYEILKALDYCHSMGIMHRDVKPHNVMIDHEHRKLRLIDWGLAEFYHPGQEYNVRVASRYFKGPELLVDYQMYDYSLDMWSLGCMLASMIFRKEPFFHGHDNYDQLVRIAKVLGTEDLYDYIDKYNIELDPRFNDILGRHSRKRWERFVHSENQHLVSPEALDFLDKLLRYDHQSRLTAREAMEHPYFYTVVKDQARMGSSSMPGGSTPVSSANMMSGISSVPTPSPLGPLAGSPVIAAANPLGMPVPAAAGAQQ
Sequence of DAPK1 (P53355 whole entry): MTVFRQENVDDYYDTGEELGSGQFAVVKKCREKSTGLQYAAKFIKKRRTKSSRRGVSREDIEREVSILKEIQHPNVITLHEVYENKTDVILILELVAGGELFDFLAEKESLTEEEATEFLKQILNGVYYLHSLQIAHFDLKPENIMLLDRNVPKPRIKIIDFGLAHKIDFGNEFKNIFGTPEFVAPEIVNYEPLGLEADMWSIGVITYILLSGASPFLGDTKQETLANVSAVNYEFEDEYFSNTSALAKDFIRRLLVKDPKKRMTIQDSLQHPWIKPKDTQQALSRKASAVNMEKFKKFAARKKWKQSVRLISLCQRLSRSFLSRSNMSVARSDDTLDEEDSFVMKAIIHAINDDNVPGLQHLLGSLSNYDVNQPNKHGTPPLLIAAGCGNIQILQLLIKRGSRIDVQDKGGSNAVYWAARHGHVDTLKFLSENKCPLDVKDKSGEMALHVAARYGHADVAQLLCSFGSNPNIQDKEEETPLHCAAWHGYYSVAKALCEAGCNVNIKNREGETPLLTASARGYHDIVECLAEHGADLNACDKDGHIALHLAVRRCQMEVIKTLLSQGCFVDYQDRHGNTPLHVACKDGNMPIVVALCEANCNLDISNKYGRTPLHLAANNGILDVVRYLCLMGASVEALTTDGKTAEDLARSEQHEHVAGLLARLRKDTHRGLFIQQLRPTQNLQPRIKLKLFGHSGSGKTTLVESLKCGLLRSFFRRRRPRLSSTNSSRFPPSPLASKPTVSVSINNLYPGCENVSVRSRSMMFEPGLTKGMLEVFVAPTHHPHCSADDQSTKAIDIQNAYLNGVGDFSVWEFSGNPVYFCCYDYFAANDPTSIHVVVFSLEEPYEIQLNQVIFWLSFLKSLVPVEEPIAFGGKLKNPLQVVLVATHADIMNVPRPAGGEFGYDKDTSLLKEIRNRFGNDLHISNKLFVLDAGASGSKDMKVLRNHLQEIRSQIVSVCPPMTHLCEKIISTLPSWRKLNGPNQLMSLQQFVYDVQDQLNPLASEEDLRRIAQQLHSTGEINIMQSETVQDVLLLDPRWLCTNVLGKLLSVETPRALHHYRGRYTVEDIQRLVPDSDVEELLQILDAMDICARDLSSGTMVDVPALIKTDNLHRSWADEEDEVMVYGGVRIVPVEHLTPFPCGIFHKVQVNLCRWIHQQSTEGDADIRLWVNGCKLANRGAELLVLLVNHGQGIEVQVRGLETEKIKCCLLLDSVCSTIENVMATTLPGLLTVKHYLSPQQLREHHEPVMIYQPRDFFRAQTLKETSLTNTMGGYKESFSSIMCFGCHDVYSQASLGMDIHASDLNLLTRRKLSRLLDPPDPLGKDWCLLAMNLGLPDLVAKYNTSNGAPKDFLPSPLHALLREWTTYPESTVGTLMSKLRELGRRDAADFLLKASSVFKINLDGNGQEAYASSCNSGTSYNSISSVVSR
Sequence of MSK1b (O75582 whole entry): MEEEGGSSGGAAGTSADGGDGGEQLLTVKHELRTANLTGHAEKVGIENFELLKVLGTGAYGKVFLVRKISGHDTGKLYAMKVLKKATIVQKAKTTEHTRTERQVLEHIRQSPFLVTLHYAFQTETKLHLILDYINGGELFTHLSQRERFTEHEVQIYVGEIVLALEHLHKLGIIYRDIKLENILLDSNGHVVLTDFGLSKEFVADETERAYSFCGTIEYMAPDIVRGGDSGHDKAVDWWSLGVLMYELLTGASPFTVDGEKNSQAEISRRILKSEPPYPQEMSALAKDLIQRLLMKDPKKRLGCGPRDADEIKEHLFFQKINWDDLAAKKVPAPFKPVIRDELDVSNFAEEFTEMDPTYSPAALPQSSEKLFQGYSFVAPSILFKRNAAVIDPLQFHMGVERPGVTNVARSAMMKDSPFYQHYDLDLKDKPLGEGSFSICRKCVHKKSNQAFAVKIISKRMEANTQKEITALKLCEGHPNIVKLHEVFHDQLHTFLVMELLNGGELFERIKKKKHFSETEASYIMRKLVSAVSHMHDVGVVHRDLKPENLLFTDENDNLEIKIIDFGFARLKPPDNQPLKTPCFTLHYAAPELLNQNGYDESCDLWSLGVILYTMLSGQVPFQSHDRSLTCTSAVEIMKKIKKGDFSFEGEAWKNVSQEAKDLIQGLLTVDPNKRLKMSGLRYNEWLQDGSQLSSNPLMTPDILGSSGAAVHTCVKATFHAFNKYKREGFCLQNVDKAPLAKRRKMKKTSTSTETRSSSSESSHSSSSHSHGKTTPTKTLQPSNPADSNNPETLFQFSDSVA

CNc1ncc2cc(-c3cc(Cl)ccc3Cl)c(=O)n(CCCCN)c2n1 [compound 8, 8-(4-Aminobutyl)-6-(2,5-dichlorophenyl)-2-(methylamino)pyrido[2,3-d]pyrimidin-7(8H)-one]
ΔTm at 10 µM (CaMK4; read-out: dTm 8): 0.1 °C | ΔTm at 10 µM (VRK1; read-out: dTm 8): 0.7 °C | ΔTm at 10 µM (DAPK1; read-out: dTm 8): 0.1 °C | ΔTm at 10 µM (CK2a1; read-out: dTm 8): 1.1 °C | ΔTm at 10 µM (FECH; read-out: dTm 8): -1.7 °C | ΔTm at 10 µM (MSK1b; read-out: dTm 8): 2.1 °C | ΔTm at 10 µM (BMPR2; read-out: dTm 8): 0.2 °C

CNc1ncc2cc(-c3cc(C(F)(F)F)ccc3Cl)c(=O)n(CCCCN)c2n1 [compound 9, 8-(4-Aminobutyl)-6-(2-chloro-5-(trifluoromethyl)phenyl)-2-(methylamino)pyrido[2,3-d]pyrimidin-7(8H)-one]
ΔTm at 10 µM (CaMK4; read-out: dTm 9): 0.1 °C | ΔTm at 10 µM (VRK1; read-out: dTm 9): 0.1 °C | ΔTm at 10 µM (DAPK1; read-out: dTm 9): 0.1 °C | ΔTm at 10 µM (CK2a1; read-out: dTm 9): 0.1 °C | ΔTm at 10 µM (FECH; read-out: dTm 9): -1.7 °C | ΔTm at 10 µM (MSK1b; read-out: dTm 9): 0.9 °C | ΔTm at 10 µM (BMPR2; read-out: dTm 9): 0.1 °C

CNc1ncc2cc(-c3cc(Cl)ccc3Br)c(=O)n(CCCCN)c2n1 [compound 10, 8-(4-Aminobutyl)-6-(2-bromo-5-chlorophenyl)-2-(methylamino)pyrido[2,3-d]pyrimidin-7(8H)-one]
ΔTm at 10 µM (CaMK4; read-out: dTm 10): 0.1 °C | ΔTm at 10 µM (VRK1; read-out: dTm 10): 0.7 °C | ΔTm at 10 µM (DAPK1; read-out: dTm 10): 0.1 °C | ΔTm at 10 µM (CK2a1; read-out: dTm 10): 1.3 °C | ΔTm at 10 µM (FECH; read-out: dTm 10): -1.7 °C | ΔTm at 10 µM (MSK1b; read-out: dTm 10): 2.1 °C | ΔTm at 10 µM (BMPR2; read-out: dTm 10): 0 °C

CNc1ncc2cc(-c3cc(Br)ccc3Br)c(=O)n(CCCCN)c2n1 [compound 11, 8-(4-Aminobutyl)-6-(2,5-dibromophenyl)-2-(methylamino)pyrido[2,3-d]pyrimidin-7(8H)-one]
ΔTm at 10 µM (CaMK4; read-out: dTm 11): 0.1 °C | ΔTm at 10 µM (VRK1; read-out: dTm 11): 0.5 °C | ΔTm at 10 µM (DAPK1; read-out: dTm 11): 0.2 °C | ΔTm at 10 µM (CK2a1; read-out: dTm 11): 1.1 °C | ΔTm at 10 µM (FECH; read-out: dTm 11): -1.6 °C | ΔTm at 10 µM (MSK1b; read-out: dTm 11): 2 °C | ΔTm at 10 µM (BMPR2; read-out: dTm 11): 0 °C

CNc1ncc2cc(-c3cc(F)c(-c4cccc(C)n4)cc3F)c(=O)n(CCCCN)c2n1 [compound 12, 8-(4-Aminobutyl)-6-(2,5-difluoro-4-(6-methylpyridin-2-yl)phenyl)-2-(methylamino)pyrido[2,3-d]pyrimidin-7(8H)-one]
ΔTm at 10 µM (CaMK4; read-out: dTm 12): 2.9 °C | ΔTm at 10 µM (VRK1; read-out: dTm 12): 0.3 °C | ΔTm at 10 µM (DAPK1; read-out: dTm 12): -0.9 °C | ΔTm at 10 µM (CK2a1; read-out: dTm 12): -0.2 °C | ΔTm at 10 µM (FECH; read-out: dTm 12): -0.6 °C | ΔTm at 10 µM (MSK1b; read-out: dTm 12): 1 °C | ΔTm at 10 µM (BMPR2; read-out: dTm 12): -0.2 °C
